≈ marks a conversion by molar mass, not a printed value.
How the values were obtained:
[1] = system: MCF-7, SKBR3, and HCT-116 cells; experiment: Annexin V/PI flow cytometry, stated for all cell lines together; assay type: cell-based, human; settings: 72 h
Description: (§1) MCF-7, SKBR3 and HCT-116 cells were incubated with compound 6 and analyzed with flow cytometry following staining with annexin V and propidium iodide (PI). […] Cells were detached with 2 mM EDTA in Dulbecco’s PBS (DPBS), harvested, centrifuged in cold PBS (1500 rpm; 5 min), and stained with the Annexin V-FITC Apoptosis Detection Kit (BioLegend, Fell, Germany; cat# 640914), according to the manufacturers’ instructions. In brief, cells were resuspended in binding buffer, then annexin V-FITC (5 μL) and PI (10 μL; 0.03 μg/sample) were added, mixed, and incubated with the cells for 15 min in the dark at room temperature. The volume was adjusted to 500 μL with binding buffer and the cell suspension was immediately analyzed in a FACSCanto II (BD Biosciences, San Diego, CA, USA) using FACSDiva software (V7, BD Biosciences).

[2] = system: SKBR3; experiment: Annexin V/PI flow cytometry analysis; assay type: cell-based, human; settings: SKBR3, 80 μg/mL, 72 h
Description: as §1

[3] = system: HCT-116; experiment: Annexin V/PI flow cytometry analysis; assay type: cell-based, human; settings: HCT-116, 80 μg/mL, 72 h
Description: as §1

[4] = system: MCF-7; experiment: Annexin V/PI flow cytometry analysis; assay type: cell-based, human; settings: MCF-7, 80 μg/mL, 72 h
Description: as §1

[5] = system: SKBR3; experiment: MTT reduction assay, cytotoxicity; assay type: cell-based; settings: Homo sapiens, SK-BR-3
Description: (§2) The cytotoxic activity of the compounds, as well as of the initial methanol extract, were tested against three human cancer cell lines: MCF-7 (breast; estrogen receptor positive (ER+), progesterone receptor (PR)+, and HER2 negative (-)), SKBR3 (breast; ER-, PR-, and HER2+), and HCT-116 (colon). All cell lines were maintained in RPMI-1640, supplemented with 10% heat-inactivated fetal bovine serum (FBS), 10 mM Hepes, 10 U/mL penicillin, 10 U/mL streptomycin, and […] (all from Lonza, Cologne, Germany) (thereafter referred to as complete medium) at 37 °C in a humidified 5% CO2 incubator.
(§3) Compounds were prepared at a stock solution of 10.0 mg/mL in DMSO and the extract at 20.0 mg/mL in DMSO. Prior to their use, they were diluted in plain RPMI-1640. Cytotoxicity was evaluated by the MTT reduction assay, which determines the effect of treatment with an exogenously added agent on the viability of the cell population. Briefly, cells were plated in 96-well plates (Greiner Bio-One GmbH, Frickenhausen, Germany; 5 × 10^3 cells/well) and incubated at 5% CO2 and 95% air at 37 °C for 24 h, in order to adhere. Further, cells were incubated with the compounds for 72 h at 37 °C in a 5% CO2 incubator. The MTT reagent (Sigma-Aldrich, Darmstadt, Germany; 1 mg/mL in phosphate buffered saline (PBS); 100 μL/well) was added during the last 4 h of incubation. The formazan crystals formed were dissolved by adding 0.1 M HCl in 2-propanol (100 μL/well) and absorption was measured using an ELISA reader (Denley WeScan, Finland) at 545 nm with reference filter set at 690 nm. All cultures were set in triplicate, whereas cells incubated in complete medium or in medium containing the equivalent amount of DMSO, as well as cells incubated in the presence of doxorubicin (Sigma-Aldrich) were used as negative and positive controls, respectively. The half maximal inhibitory concentration (IC50) was calculated according to the formula: 100(A0 − A)/A0 = 50, where A and A0 are optical densities of wells exposed to the compounds and control wells, respectively.
(§4) The compounds were tested at a concentration range of 200.0 to 6.25 μg/mL and the extract at 750.0 to 1.25 μg/mL. […] All experiments were performed at least three times.

[6] = system: HCT-116; experiment: MTT reduction assay, cytotoxicity; assay type: cell-based; settings: Homo sapiens
Description: as §2, §3, §4

[7] = system: MCF-7; experiment: MTT reduction assay, cytotoxicity; assay type: cell-based, human; settings: for IC50: Homo sapiens, MCF7
Description: as §3, with “Prior to their use, they were diluted in plain RPMI-1640.” left out, “Briefly, cells were plated in 96-well plates (Greiner Bio-One GmbH, Frickenhausen, Germany; 5 × 10^3 cells/well) and incubated at 5% CO2 and 95% air at 37 °C for 24 h, in order to adhere.” left out, “respectively.” for “respectively. The half maximal inhibitory concentration (IC50) was calculated according to the formula: 100(A0 − A)/A0 = 50, where A and A0 are optical densities of wells exposed to the compounds and control wells, respectively.”
All experiments were performed at least three times.

[8] = system: human peripheral blood mononuclear cells (PBMCs); experiment: Cytotoxic effect against PBMCs, annexin V/PI flow cytometry; assay type: cell-based; settings: 24 h
Description: as §1
Compound 6 was additionally assessed for its cytotoxicity against human peripheral blood mononuclear cells (PBMCs) isolated from healthy blood donors’ peripheral blood as previously described. Prior to blood draw, individuals gave their informed consent according to the regulations approved by the 2nd Peripheral Blood Transfusion Unit and Hemophiliac Centre, “Laikon” General Hospital Institutional Review Board, Athens, Greece. PBMCs were seeded in 24-well plates (5 × 10^5/mL; 2 mL/well) and exposed to 2 concentrations of compound 6: 80 μg/mL and 40 μg/mL. PBMCs were collected, stained as described in 2.5 and analyzed by flow cytometry.

[9] = system: MCF-7, SKBR3, and HCT-116; experiment: MTT reduction assay, stated for all cell lines together; assay type: cell-based; settings: Homo sapiens; all cell lines tested, positive control
Description: as §2
Compounds were prepared at a stock solution of 10.0 mg/mL in DMSO and the extract at 20.0 mg/mL in DMSO. Prior to their use, they were diluted in plain RPMI-1640. Cytotoxicity was evaluated by the MTT reduction assay, which determines the effect of treatment with an exogenously added agent on the viability of the cell population. […] The formazan crystals formed were dissolved by adding 0.1 M HCl in 2-propanol (100 μL/well) and absorption was measured using an ELISA reader (Denley WeScan, Finland) at 545 nm with reference filter set at 690 nm. […] The half maximal inhibitory concentration (IC50) was calculated according to the formula: 100(A0 − A)/A0 = 50, where A and A0 are optical densities of wells exposed to the compounds and control wells, respectively. […]

[10] = 40 μg/mL, range over the cell lines
[11] = MCF-7, 72 h exposure, mean ± SD of three experiments

## O=C(O[C@H](Cc1ccc(O)c(O)c1)C(=O)O)C1=Cc2cc(O)c(O)cc2[C@@H](c2ccc(O)c(O)c2)[C@@H]1C(=O)O[C@H](Cc1ccc(O)c(O)c1)C(=O)O [Compound 6, (-)-rabdosiin]
[1]; [10]
  early apoptotic cells: 13.5–20.1%
  late apoptotic/necrotic cells: 3.9–6.5%
[1]; 80 μg/mL, all cell lines
  cells driven to apoptosis: ca. 50%
[2]
  early apoptotic cells (annexin V+): 40.1%
  late apoptotic/necrotic cells (annexin V+/PI+): 9.1%
[3]
  early apoptotic cells (annexin V+): 43.1%
  late apoptotic/necrotic cells (annexin V+/PI+): 10.2%
[4]
  early apoptotic cells (annexin V+): 44.9%
  late apoptotic/necrotic cells (annexin V+/PI+): 12.3%
[5]; SKBR3, 72 h exposure, mean ± SD of three experiments
  IC50: 83 ± 3.54 µg/mL
[6]; HCT-116, 72 h exposure, mean ± SD of three experiments
  IC50: 84 ± 7.78 µg/mL
[7]; [11]
  IC50: 75 ± 2.12 µg/mL
[8]; donor 1, 40 μg/mL
  early apoptotic PBMCs: 1.8%
  late apoptotic/necrotic PBMCs: 1.7%
[8]; donor 1, 80 μg/mL
  early apoptotic PBMCs: 2.8%
  late apoptotic/necrotic PBMCs: 3.0%
[8]; donor 2, 40 μg/mL
  early apoptotic PBMCs: 2.1%
  late apoptotic/necrotic PBMCs: 1.9%
[8]; donor 2, 80 μg/mL
  early apoptotic PBMCs: 4.3%
  late apoptotic/necrotic PBMCs: 3.1%

## O=C(O[C@H](Cc1ccc(O)c(O)c1)C(=O)O)[C@H]1[C@H](C(=O)O[C@H](Cc2ccc(O)c(O)c2)C(=O)O)[C@H](c2ccc(O)c(O)c2)[C@H]1c1ccc(O)c(O)c1 [Compound 7, shimobashiric acid C]
[7]; [11]
  IC50 ± SD: 142 ± 3.54 µg/mL (≈ 197 µM)

## O=C(O)[C@H]1O[C@@H](Oc2cc(O)c3c(=O)cc(-c4ccc(O)c(O)c4)oc3c2)[C@H](O)[C@@H](O)[C@@H]1O [Compound 9, luteolin 7-O-β-D-glucuronide]
[7]; [11]
  IC50 ± SD: 141 ± 1.41 µg/mL (≈ 305 µM)

## O=C(O)/C=C/c1ccc(O[C@@H]2O[C@H](CO)[C@@H](O)[C@H](O)[C@H]2O)cc1 [Compound 11, (E)-p-coumaroyl 4-O-β-D-glucoside]
[7]; [11]
  IC50 ± SD: 139 ± 7.78 µg/mL (≈ 426 µM)

## O=C(O)C(O)Cc1ccc(O)c(O)c1 (centres unmarked) [Compound 12, 3-(3,4-dihydroxyphenyl) lactic acid]
[7]; [11]
  IC50: 140 ± 12 µg/mL

## O=C(O)c1ccc(O)c(O)c1 [Compound 13, protocatechuic acid]
[7]; [11]
  IC50: 140 ± 4.95 µg/mL

## COc1cccc2c1C(=O)c1c(O)c3c(c(O)c1C2=O)C[C@@](O)(C(=O)CO)C[C@@H]3O[C@H]1C[C@H](N)[C@H](O)[C@H](C)O1 [Doxorubicin, reference compound]
[9]
  IC50: ≤ 200 nM
[5]; SKBR3, positive control
  IC50: 95 ± 8 nM
[6]; HCT-116, positive control
  IC50: 192 ± 29 nM
[7]; MCF-7, positive control
  IC50: 92 ± 7 nM

From PMC6473744, “Antiproliferative Activity of (-)-Rabdosiin Isolated from Ocimum sanctum L” (Medicines, 2019)
